According to patent US20180071317A1, “USE OF AGENTS THAT ALTER THE PERITUMORAL ENVIRONMENT FOR THE TREATMENT OF CANCER” (SERVICIO ANDALUZ DE SALUD, priority 2011, published 2018):

Experiments:
[1] = tested on: macrophages in co-culture with cells isolated from primary human tumors; experiment: Marker expression (IHC) in macrophages co-cultured with primary human tumor cells (colon, breast, ovarian, lung carcinoma, melanoma); format: cell-based; conditions: SP 1 μM + antagonist 1 μM;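 note: macrophages came from pleural or peritoneal washings of the patient who also supplied the tumor cells, and both were co-cultured on fresh blood plasma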
Method: To check that the interaction of tumor cells obtained directly from primary human immune cell/inflammatory (macrophages) cells, obtained from the patient stimulate secretion of substances by these macrophages recognized as important in survival of both cell types and in the progression of tumor cells, co-cultures were performed on fresh blood plasma, immune cell/inflammatory (macrophages) with tumor cells derived from primary tumors. All obtained from the same patient, to build an experimental model similar to human physiology.
Macrophages were obtained from washing or pleural or peritoneal from the same patient from which the primary tumor cells were obtained in each case.

[2] = tested on: fibroblasts (PHF) co-cultivated with tumor cell lymphoblastic leukemia B (SDI); experiment: Marker expression (IHC) in PHF co-cultured with SDI tumor cells; format: cell-based, human; conditions: PHF co-cultivated with SDI + SP + NK1 antagonist
Method: (§1) All cultures were maintained 48 hours, following which the same cells were included in paraffin blocks for subsequent analysis of the expression of different markers by immunohistochemistry (see Example 1). […] All experiments were carried out sixfold. Analyzed markers in fibroblast cells (stromal cells) were: TGF-α, TGF-β1, TGF-β2, TGF-β3, SPARC, MMP-3, MMP-7, MMP-9, MMP-11, MMP-13 and MMP-14.

[3] = tested on: fibroblasts of tumors produced by tumor cell line of human melanoma (MEL HO); experiment: Marker expression (IHC) in fibroblasts of tumor or peritumoral area, mouse model, MEL HO; format: in vivo; conditions: MEL HO tumors in mice, 30 mg/kg/day oral, 7 days
Method: In vitro tests conducted in Example 5 are now carried out in an experimental model in mice in vivo. […] Subsequently, the expression in fibroblasts tumoral and peritumoral area of molecular markers associated with progression and maintenance of tumors: TGF-α, TGF-β1, TGF-β2, TGF-β3, MMP-7, MMP-11, MMP-14 were analyzed by immunohistochemistry.
Were injected with 2×10^7 cells tumors (corresponding, in each case to each of the tumor types as specified in Table 9) in 200 of PBS subcutaneously μl. […] Mice were randomized into two groups when the tumors reached a volume of 75 mm^3 One group was treated with non-peptide receptor antagonists NK1 and the other with placebo 200μ1. […] Tumors and samples of non-neoplastic stromal areas remote from the tumor were halved, formalin fixed (4%) and then were included in paraffin blocks for analysis by immunohistochemistry.
The expression on fibroblast cells obtained in the animal model was analyzed by immunohistochemistry, of the above markers: TGF-α, TGF-β1, TGF-β2, TGF-β3, MMP-7, MMP-1 1, MMP-14MP-14. Tables 32 to 35 depict the type of label used and the average percentage of fibroblasts present in non-tumor areas, tumor and peritumoral (±SD) which were expressing the marker shown in each of the tumor types developed from of the different cell lines used. This process was realized in mice treated with non-peptide antagonists of NK1 receptor and in untreated animals (control).

[4] = tested on: fibroblasts (PHF) co-cultured with human melanoma tumor cells (MEL-HO1); experiment: Marker expression (IHC) in PHF co-cultured with MEL-HO1 tumor cells; format: cell-based; conditions: PHF co-cultured with MEL-HO1 + SP + NK1 antagonist;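 note: values are the percentage of fibroblasts positive for each marker, with cultures grown in fresh healthy-donor blood plasma and each experiment run six times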
Method: as §1

[5] = tested on: fibroblasts (PHF) cells co-cultured with human T lymphoma tumor (DERL-7); experiment: Marker expression (IHC) in PHF co-cultured with DERL-7 tumor cells; format: cell-based; conditions: PHF co-cultured with DERL-7 + SP + NK1 antagonist
Method: (§2) All cultures were maintained 48 hours, following which the same cells were included in paraffin blocks for subsequent analysis of the expression of different markers by immunohistochemistry (see Example 1). The primary antibodies used to perform immunohistochemical assays and their concentration are detailed in Example 2. All experiments were carried out sixfold. Analyzed markers in fibroblast cells (stromal cells) were: TGF-α, TGF-β1, TGF-β2, TGF-β3, SPARC, MMP-3, MMP-7, MMP-9, MMP-11, MMP-13 and MMP-14.

[6] = tested on: fibroblasts (PHF) co-cultured with tumor cells, thyroid carcinoma; experiment: Marker expression (IHC) in PHF co-cultured with thyroid carcinoma tumor cells; format: cell-based, human; conditions: co-culture with thyroid carcinoma cells; SP 1 μM + antagonist 1 μM; 48 h;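 note: grown in fresh plasma from a healthy human donor, read-out is percent of fibroblasts positive for each marker, compared with fibroblasts cultured alone, run in six replicates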
Method: as §1

[7] = tested on: fibroblasts (PHF) co-cultured with tumor cells, thyroid carcinoma (reference A-427); experiment: as above; format: cell-based, human; conditions: co-culture with thyroid carcinoma cells; SP 1 μM + antagonist 1 μM; 48 h
Method: as §1

[8] = tested on: fibroblasts (PHF) co-cultured with tumor cells of human colon adenocarcinoma (SW-403); experiment: Marker expression (IHC) in PHF co-cultured with SW-403 tumor cells; format: cell-based; conditions: co-culture with SW-403; SP 1 μM + antagonist 1 μM; 48 h
Method: as §2

[9] = tested on: fibroblasts (PHF) co-cultured with human glioma tumor cells (GAMG); experiment: Marker expression (IHC) in PHF co-cultured with GAMG tumor cells; format: cell-based; conditions: co-culture with GAMG; SP 1 μM + antagonist 1 μM; 48 h;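 note: percentage of PHF fibroblasts positive for each marker, cultured in fresh plasma from a healthy donor, six replicates, with fibroblasts cultured alone as reference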
Method: as §1

[10] = tested on: human primary macrophages (PHM); experiment: Marker expression (immunohistochemistry) in human primary macrophages with SP alone or with NK1 antagonists; format: cell-based; conditions: SP 1 μM + antagonist 1 μM; 48 h
Method: In this sense the next step was to analyze the effect exerted by the treatment with non-peptide NK1 antagonists in human primary macrophages (PHM) obtained and purified from pleural effusion samples obtained from men with chronic age range between 45 and 55 years. Briefly, the pleural fluid from chronic (rich in macrophages) was centrifuged.
After 48 hours of culture, cells were harvested and cellular paraffin blocks were constructed for immunohistochemical analysis (see Example 1). To analyze the expression of markers EGF, MMP-9, VEGF and IL-8 antibodies were used as follows: EGF (rabbit monoclonal antibody, anti-EGF; 07-1432. Merck-Millipore), MMP-9 (polyclonal rabbit anti-MMP-9: SAB4501896, Sigma-Aldrich), VEGF (mouse monoclonal anti-VEGF, GF25-100UG, Merck-Millipore) and TNF-α (mouse monoclonal anti-TNF-α, number MAB 1021 catalogue, obtained from Merck-Millipore). All of these antibodies were used at a concentration of 1/1000. System for labelling with a secondary antibody specific for the primary antibodies obtained from rabbit or mouse was used, as was necessary in each case, both the Envision (Dako). All experiments were carried out sixfold.

[11] = tested on: fibroblasts (PHF) co-cultured with tumor cells, ovarian carcinoma (EFO-27); experiment: Marker expression (IHC) in PHF co-cultured with EFO-27 tumor cells; format: cell-based, human; conditions: co-culture with EFO-27; SP 1 μM + antagonist 1 μM; 48 h;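 note: values are the percentage of PHF fibroblasts positive for each marker, cultured in fresh plasma from a healthy human donor, each experiment run in six replicates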
Method: as §1

[12] = co-culture with cells isolated from breast carcinoma
[13] = co-culture with cells isolated from colon carcinoma
[14] = co-culture with cells isolated from lung carcinoma
[15] = co-culture with cells isolated from melanoma
[16] = co-culture with cells isolated from ovarian carcinoma

Cc1cc(F)ccc1[C@H]1CNCCN1C(=O)N(C)[C@H](C)c1cc(C(F)(F)F)cc(C(F)(F)F)c1 [Vestipitant]
0%: Percentage of macrophages which expressed EGF [1, 12] | Percentage of macrophages which expressed MMP-9 [1, 12] | Percentage of macrophages which expressed VEGF [1, 12] | Percentage of macrophages which expressed EGF [1, 13] | Percentage of macrophages which expressed MMP-9 [1, 13] | Percentage of macrophages which expressed VEGF [1, 13] | Percentage of macrophages which expressed EGF [1, 14] | Percentage of macrophages which expressed MMP-9 [1, 14] | Percentage of macrophages which expressed VEGF [1, 14] | Percentage of macrophages which expressed EGF [1, 15] | Percentage of macrophages which expressed MMP-9 [1, 15] | Percentage of macrophages which expressed VEGF [1, 15] | Percentage of macrophages which expressed EGF [1, 16] | Percentage of macrophages which expressed MMP-9 [1, 16] | Percentage of macrophages which expressed VEGF [1, 16] | cells expressing MMP-3 [2] | cells expressing MMP-7 [2] | cells expressing MMP-9 [2] | cells expressing MMP-11 [2] | cells expressing MMP-13 [2] | cells expressing MMP-14 [2] | cells expressing SPARC [2] | cells expressing TGF-α [2] | cells expressing TGF-β1 [2] | cells expressing TGF-β2 [2] | cells expressing TGF-β3 [2] | fibroblasts expressing MMP-7 [3] | fibroblasts expressing MMP-11 [3] | fibroblasts expressing MMP-14 [3] | fibroblasts expressing TGF-α [3] | fibroblasts expressing TGF-β 1 [3] | fibroblasts expressing TGF-β 2 [3] | fibroblasts expressing TGF-β 3 [3] | cells expressing MMP-3 [4] | cells expressing MMP-7 [4] | cells expressing MMP-9 [4] | cells expressing MMP-11 [4] | cells expressing MMP-13 [4] | cells expressing MMP-14 [4] | cells expressing SPARC [4] | cells expressing TGF-α [4] | cells expressing TGF-β1 [4] | cells expressing TGF-β2 [4] | cells expressing TGF-β3 [4] | cells expressing MMP-3 [5] | cells expressing MMP-7 [5] | cells expressing MMP-9 [5] | cells expressing MMP-11 [5] | cells expressing MMP-13 [5] | cells expressing MMP-14 [5] | cells expressing SPARC [5] | cells expressing TGF-α [5] | cells expressing TGF-β1 [5] | cells expressing TGF-β2 [5] | cells expressing TGF-β3 [5] | PHF cells expressing MMP-11 [6] | PHF cells expressing MMP-3 [7] | PHF cells expressing MMP-7 [7] | PHF cells expressing MMP-9 [7] | PHF cells expressing MMP-13 [7] | PHF cells expressing MMP-14 [7] | PHF cells expressing SPARC [7] | PHF cells expressing TGF-α [7] | PHF cells expressing TGF-β1 [7] | PHF cells expressing TGF-β2 [7] | PHF cells expressing TGF-β3 [7] | PHF cells expressing MMP-3 [8] | PHF cells expressing MMP-7 [8] | PHF cells expressing MMP-9 [8] | PHF cells expressing MMP-11 [8] | PHF cells expressing MMP-13 [8] | PHF cells expressing MMP-14 [8] | PHF cells expressing SPARC [8] | PHF cells expressing TGF-α [8] | PHF cells expressing TGF-β1 [8] | PHF cells expressing TGF-β2 [8] | PHF cells expressing TGF-β3 [8] | PHF cells expressing MMP-3 [9] | PHF cells expressing MMP-7 [9] | PHF cells expressing MMP-9 [9] | PHF cells expressing MMP-11 [9] | PHF cells expressing MMP-13 [9] | PHF cells expressing MMP-14 [9] | PHF cells expressing SPARC [9] | PHF cells expressing TGF-α [9] | PHF cells expressing TGF-β1 [9] | PHF cells expressing TGF-β2 [9] | PHF cells expressing TGF-β3 [9] | macrophages expressing EGF [10] | macrophages expressing MMP-9 [10] | macrophages expressing VEGF [10] | PHF cells expressing MMP-3 [11] | PHF cells expressing MMP-7 [11] | PHF cells expressing MMP-9 [11] | PHF cells expressing MMP-11 [11] | PHF cells expressing MMP-13 [11] | PHF cells expressing MMP-14 [11] | PHF cells expressing SPARC [11] | PHF cells expressing TGF-α [11] | PHF cells expressing TGF-β1 [11] | PHF cells expressing TGF-β2 [11] | PHF cells expressing TGF-β3 [11]
